Results reported in US9284283B2, “Macrocyclic compounds for modulating IL-17” (ENSEMBLE THERAPEUTICS CORPORATION, priority 2012, dated 2016).
Values joined by “and” are separate entries in the source; they are usually repeats but may differ in a detail not shown here. Identical values can stand only once.

What follows are compounds tested against T1, IL17A (Homo sapiens, UniProt Q16552) (assay: Surface Plasmon Resonance (SPR) analysis of compound interactions with IL17A). Settings: SPR binding to IL17A.
T1 sequence (Q16552 24-155): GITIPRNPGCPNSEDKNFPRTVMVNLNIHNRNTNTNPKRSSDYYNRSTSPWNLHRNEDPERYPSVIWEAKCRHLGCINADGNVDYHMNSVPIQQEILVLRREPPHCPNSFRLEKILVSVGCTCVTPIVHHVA
Method: SPR analysis was carried out with a GE Healthcare (Piscataway, N.J.) Biacore X100 system. Typically, the chip (NTA Biacore Biosensor chip; GE Healthcare BR-1000-34) was first conditioned by injection of 0.35 M EDTA, which also served to remove any immobilized proteins from previous runs. Before immobilization of the recombinant 6-His-tagged IL17, the chip was washed with 0.5 mM nickel chloride in NTA buffer (10 mM HEPES buffer, 0.15 M sodium chloride, 10 μM ethylene diamine tetraacetic acid, 0.005% v/v surfactant P20 (GE Healthcare BR-1000-54)) to form a nickel chelate on the chip. IL17 protein was immobilized onto a NTA chip through its 6-His tag. IL17A was typically injected at 0.25 μM for 60-120 seconds, followed by a stabilization step washing with NTA+0.5% DMSO for 120 seconds or longer.
Five 2-fold or 3-fold serial dilutions of test compound were injected serially onto the chip. All steps were conducted using NTA buffer containing 0.5% v/v dimethylsulfoxide (DMSO). Compounds were diluted from stock solutions of 10 mM concentration in 100% DMSO with NTA buffer to obtain 50 μM solutions in NTA+0.5% DMSO. Subsequent 2× or 3× dilutions were made in NTA+0.5% DMSO. Compound was generally injected for 180 seconds followed by washing the chip in buffer alone for 120 seconds. The rate of refractive index change (RU units/time) and the maximum extend of RU change was measured during the “on” phase of analyte injection, followed by measuring the rate during the “off” phase.
Kinetic parameter fits were conducted using the Biacore SPR Evaluation Program (GE Healthcare) for 1:1 molecular binding fits, after subtracting the baseline average of 2 or more runs in which no analyte was injected. This program then reports the best fit average for the “on” rate (Ka), the “off” rate (Kd) and the dissociation constant (KD) (Chaiken, I et al., Anal Biochem 201, 197-210 (1992)). A separate program in the Biacore SPR Evaluation Program then calculates the best fit for Kd based upon the extent of binding alone (RU units bound) at each concentration of analyte and reports the best fit Kd by best fit to a Lineweaver-Burke plot. Typically, the Kd value calculated through both means agreed within a factor of three.
The presence and activity of IL17 on the NTA chip was routinely confirmed three ways: • 1) An increase in response units (RU) upon immobilization confirms that the IL17 was immobilized on the chip; • 2) Anti-IL17 was also injected on the chip to confirm the presence of IL17; and • 3) IL17R was injected onto the chip to confirm that the immobilized IL17 retained its binding activity for its receptor. Negative controls to access specificity for compound binding were conducted by immobilizing unrelated, but his-tagged, proteins (such as cyclophilin D) and conducting the same analysis as done with IL17A.

For O=C1CCCNC(=O)[C@@H](Cc2ccc(NC(=O)[C@H](Cc3ccc(-c4ccccc4)cc3)NC(=O)c3ccccc3)cc2)NC(=O)CC2(CCCC2)CC(=O)N[C@H](C(=O)O)CCCCN1 [Compound 178], which Kd is on record?
The Kd was 100 to 1000 nM.

COC(=O)[C@H]1CCCCNC(=O)CCCNC(=O)[C@@H](Cc2ccc(NC(=O)[C@H](Cc3ccccc3)NC(=O)Cc3ccccc3)cc2)NC(=O)CC2(CCCC2)CC(=O)N1 [Compound 138] was tested. Which Kd did it give?
The Kd was 100 to 1000 nM.

How did the Kd turn out when COC(=O)[C@@H]1CCCCNC(=O)CNC(=O)[C@@H](Cc2ccc(NC(=O)[C@H](Cc3ccccc3F)NC(=O)c3ccccc3)cc2)NC(=O)CC2(CCCC2)CC(=O)N1 [Compound 151] was run?
Its Kd is < 100 nM.

Which Kd does the source give for CC(=O)N[C@@H](Cc1ccccc1Cl)C(=O)Nc1ccc(C[C@H]2NC(=O)CC3(CCCC3)CC(=O)NCCCCNC(=O)CCCNC2=O)cc1 [Compound 167] here?
Its Kd is < 100 nM.

How did the Kd turn out when CC(=O)N[C@@H](Cc1ccccc1Cl)C(=O)Nc1ccc(C[C@H]2NC(=O)CC3(CCCC3)CC(=O)NCCCCCNC(=O)CCNC2=O)cc1 [Compound 154] was run?
Its Kd is < 100 nM.

Which Kd does the source give for COC(=O)[C@@H]1Cc2ccc(cc2)NC(=O)CCCNC(=O)[C@@H](Cc2ccc(NC(=O)[C@H](Cc3ccccc3F)NC(=O)c3ccccc3)cc2)NC(=O)CC2(CCCC2)CC(=O)N1 [Compound 134] here?
The Kd was 100 to 1000 nM.

COC(=O)[C@@H]1CCCCNC(=O)CCCNC(=O)[C@@H](Cc2ccc(NC(=O)[C@H](Cc3cccc(F)c3)NC(=O)c3ccccc3)cc2)NC(=O)CC2(CCCC2)CC(=O)N1 [Compound 117] was tested. Which Kd did it give?
The Kd was 100 to 1000 nM.

With O=C1CCNC(=O)[C@@H](Cc2ccc(NC(=O)[C@H](Cc3ccccc3Cl)NC(=O)Cc3ccccc3)cc2)NC(=O)CC2(CCCC2)CC(=O)N(CCO)CCCCCN1 [Compound 170] as the compound, how does the Kd read?
The Kd was < 100 nM.

Which Kd does the source give for CC(=O)N[C@@H](Cc1ccccc1Cl)C(=O)Nc1ccc(C[C@H]2NC(=O)CC3(CCCC3)CC(=O)NCCCCCNC(=O)CCCNC2=O)cc1 [Compound 155] here?
Its Kd is < 100 nM.

For COC(=O)[C@H]1CCCCNC(=O)CCCNC(=O)[C@@H](Cc2ccc(NC(=O)[C@H](Cc3ccccc3)NC(=O)c3ccccc3)cc2)NC(=O)CC2(CCCC2)CC(=O)N1 [Compound 139], which Kd is on record?
Its Kd is 100 to 1000 nM.

For COC(=O)[C@H]1CCCCNC(=O)CCCNC(=O)[C@H](Cc2ccc(NC(=O)[C@H](Cc3ccccc3)NC(=O)Cc3ccccc3)cc2)NC(=O)CC2(CCCC2)CC(=O)N1 [Compound 104], which Kd is on record?
Its Kd is 1000 to 10000 nM.

With COC(=O)[C@@H]1CCCCNC(=O)CCCNC(=O)[C@H](Cc2ccc(NC(=O)[C@H](Cc3ccccc3F)NC(=O)Cc3ccccc3)cc2)NC(=O)CC2(CCCC2)CC(=O)N1 [Compound 105] as the compound, how does the Kd read?
Its Kd is 1000 to 10000 nM and 100 to 1000 nM.

How did the Kd turn out when O=C1CNC(=O)[C@@H](Cc2ccc(NC(=O)[C@H](Cc3ccccc3Cl)NC(=O)Cc3ccccc3)cc2)NC(=O)CC2(CCCC2)CC(=O)NCCCN1 [Compound 156] was run?
Its Kd is < 100 nM.

How did the Kd turn out when COC(=O)[C@H]1CCCCNC(=O)C(C)(C)NC(=O)[C@@H](Cc2ccc(NC(=O)[C@H](Cc3ccccc3Cl)NC(=O)c3ccccc3)cc2)NC(=O)CC2(CCCC2)CC(=O)N1 [Compound 146] was run?
Its Kd is < 100 nM.

O=C1CCCNC(=O)[C@H](Cc2ccc(NC(=O)[C@H](Cc3ccccc3F)NC(=O)Cc3ccccc3)cc2)NC(=O)CC2(CCCC2)CC(=O)N[C@H](C(=O)O)CCCCN1 [Compound 174] was tested. Which Kd did it give?
The Kd was 100 to 1000 nM.

With COC(=O)[C@H]1CCCCNC(=O)C(C)(C)NC(=O)[C@@H](Cc2ccc(NC(=O)[C@H](Cc3ccccc3Cl)NC(=O)Cc3ccccc3)cc2)NC(=O)CC2(CCCC2)CC(=O)N1 [Compound 145] as the compound, how does the Kd read?
The Kd was < 100 nM.

With O=C1CCNC(=O)[C@@H](Cc2ccc(NC(=O)[C@H](Cc3ccccc3Cl)NC(=O)Cc3ccccc3)cc2)NC(=O)CC2(CCCC2)CC(=O)NCCCN1 [Compound 157] as the compound, how does the Kd read?
The Kd was < 100 nM.
